Test results as given in patent US9801903B2, “Targeting cancer with metabolic therapy and hyperbaric oxygen” (priority 2012, dated 2017).

System: VM-M3/Fluc cells
Experiment: Whole animal tumor bioluminescence (tumor size and metastatic spread)
Type: in vivo, VM/Dk mice
Details: Example 2; day 21 post-inoculation; FIG. 8
Excerpt: VM-M3/Fluc cells (T. Seyfried; Boston College) were obtained from a spontaneous tumor in a VM/Dk inbred mouse and adapted to cell culture (Huysentruyt et al., Metastatic cancer cells with macrophage properties: evidence from a new murine tumor model. Intl J Can. 2008, 123(1):73-84). […] VM-M3/Fluc cells are transfected with the firefly luciferase gene which produces a bioluminescent product in the presence of the enzymatic substrate luciferin (Shelton, et al. (2010) A novel pre-clinical in vivo mouse model for malignant brain tumor growth and invasion. Journal of neuro-oncology 99: 165-176). Bioluminescence can be detected and measured with the Xenogen IVIS Lumina System (Caliper LS). […] Bioluminescent signal was recorded using a 1 second exposure time on the IVIS Lumina cooled CCD camera. Progression of the metastatic cancer was measured by tracking the bioluminescent signal of the whole animal over time. Tumor bioluminescence will be measured once weekly for the duration of the study.
Tumor progression was measured using bioluminescence on the Xenogen IVIS Lumina cooled CCD camera (Caliper LS, Hopkinton, Mass.). […] Whole animal bioluminescent signal was measured in photons/sec once a week as an indicator of metastatic tumor size and spread. Tumor progression was measured 21 days after tumor cell inoculation.

| Structure (SMILES) | tumor bioluminescence / tumor growth and metastasis |
| --- | --- |
| CC(O)CCO (centres unmarked) [BD, 1,3-butanediol] | greatly reduced tumor growth and reduced metastasis of the tumor |
| CC(=O)CC(=O)OCC[C@@H](C)OC(=O)CC(C)=O [KE, R,S-1,3-butanediol-diacetoacetate ester] | greatly reduced tumor growth and reduced metastasis of the tumor |
